From patent publication US20200216416A1, “QUINOLINE COMPOUNDS AS INHIBITORS OF TAM AND MET KINASES” (Array BioPharma Inc., priority 2019, published 2020) come the findings set out here.

Bounds are passed on as bounds.

For test [1], the target named is T1, GST-tagged recombinant human TYRO3 kinase domain (Homo sapiens, UniProt Q06418).
T1 construct: GST-tagged recombinant human TYRO3 kinase domain; purchased Carna PR7480A
T1 sequence (Q06418 518-790 limits assumed): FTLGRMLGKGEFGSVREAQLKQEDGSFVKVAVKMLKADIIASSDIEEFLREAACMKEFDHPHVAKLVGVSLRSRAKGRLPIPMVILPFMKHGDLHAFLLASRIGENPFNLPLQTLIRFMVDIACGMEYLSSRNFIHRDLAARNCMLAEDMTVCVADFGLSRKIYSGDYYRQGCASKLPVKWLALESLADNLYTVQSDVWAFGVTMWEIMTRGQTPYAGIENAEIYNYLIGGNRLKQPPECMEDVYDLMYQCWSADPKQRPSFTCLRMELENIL
As to the kind of experiment: TYRO3 Enzyme Assay (LanthaScreen Eu Kinase Binding). The conditions noted are these: averaged IC50; TYRO3 5 nM; 60-minute incubation at 22° C.; TR-FRET. As for the experimental part: Compounds disclosed herein were screened for their ability to inhibit TYRO3 kinase using Invitrogen's LanthaScreenTM Eu Kinase Binding technology. GST-tagged recombinant human TYRO3 kinase domain from Carna (5 nM; Cat. No. P[…]) was incubated with 20 nM Alexa-Fluor® Tracer 236 (P[…]) and 2 nM Europium-anti-GST (Cat. No. A15116) along with test compound in a buffer consisting of 25 mM HEPES, pH 7.4, 10 mM MgCl2, 0.01% Triton X-100, and 2% DMSO. Compounds are typically prepared in a threefold serial dilution in DMSO and added to the assay to give the appropriate final concentration. After a 60-minute incubation at 22° C., the reaction was measured using a PerkinElmer EnVision multimode plate reader via TR-FRET dual wavelength detection, and the percent of control (POC) calculated using a ratiometric emission factor. […] The POC values were fit to a 4 parameter logistic curve and the IC50 value is point where the curve crosses 50 POC.

The target of test [2] is T2, human MET kinase del Ex14 (Homo sapiens, UniProt P08581, DEL963-1009).
T2 construct: GST-tagged recombinant human MET kinase domain; purchased Signal Chem
As to the kind of experiment: c-Met Enzyme Assay, del Ex14 mutant. The class given is binding. The conditions noted are these: averaged IC50; del Ex14 5 nM; 60-minute incubation at 22° C.; read-out: Del14 IC50. How it is done:
(§1) The affinity of compound binding to wild type and mutant human MET kinases was measured using Invitrogen's LanthaScreen™ Eu Kinase Binding technology. Briefly, GST-tagged recombinant human MET kinase domain from Signal Chem (see Table 8 below for concentration in assay) was incubated with 50 nM Alexa-Fluor® Tracer 236 (Invitrogen Cat No. PR9078A) and 2 nM Europium-anti-GST (Invitrogen Cat. No. A15116) along with test compound in a buffer consisting of 25 mM HEPES, pH 7.4, 10 mM MgCl2, 0.01% Triton X-100, 1mM DTT, and 2% DMSO. Compounds were typically prepared in a three-fold serial dilution in DMSO and added to the assay to give the appropriate final concentration. After a 60-minute incubation at 22° C., the reaction was measured using a PerkinElmer EnVision multimode plate reader via TR-FRET dual wavelength detection, and the percent of control (POC) calculated using a ratiometric emission factor. […] The POC values were fit to a 4 parameter logistic curve and the IC50 value is point where the curve crosses 50 POC.

Another test addresses T3, human MET kinase F1200I (Homo sapiens, UniProt P08581, F1200I).
T3 construct: GST-tagged recombinant human MET kinase domain; purchased Signal Chem
The test can be described thus: c-Met Enzyme Assay, F1200I mutant. Format: binding. The conditions noted are these: averaged IC50; F1200I 2 nM; 60-minute incubation at 22° C. How it is done:
as §1

T2 sequence (P08581 with tags, fused parts or gaps DEL963-1009 limits assumed): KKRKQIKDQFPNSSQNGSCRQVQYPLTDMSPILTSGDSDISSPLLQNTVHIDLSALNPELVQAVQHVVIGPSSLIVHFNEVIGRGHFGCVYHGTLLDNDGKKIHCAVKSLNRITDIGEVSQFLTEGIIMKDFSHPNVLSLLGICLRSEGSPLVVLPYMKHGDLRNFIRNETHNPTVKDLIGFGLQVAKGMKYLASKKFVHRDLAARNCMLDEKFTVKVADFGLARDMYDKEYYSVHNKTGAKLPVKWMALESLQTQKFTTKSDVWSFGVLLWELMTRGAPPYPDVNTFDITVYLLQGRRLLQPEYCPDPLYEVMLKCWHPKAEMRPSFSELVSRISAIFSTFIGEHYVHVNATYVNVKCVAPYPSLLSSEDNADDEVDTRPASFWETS
T3 sequence (P08581 1078-1345 F1200I limits assumed): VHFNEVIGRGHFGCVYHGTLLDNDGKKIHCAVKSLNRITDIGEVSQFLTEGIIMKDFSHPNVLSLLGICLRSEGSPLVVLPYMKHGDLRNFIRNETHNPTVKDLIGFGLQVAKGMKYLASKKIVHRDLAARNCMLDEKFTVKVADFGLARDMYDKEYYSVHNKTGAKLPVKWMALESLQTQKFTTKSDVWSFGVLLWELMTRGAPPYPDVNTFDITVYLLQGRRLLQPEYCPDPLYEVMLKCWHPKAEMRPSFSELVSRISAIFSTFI

For `COc1cc2nccc(Oc3ccc(NC(=O)c4cn(C(C)C)cc(-c5ccc(F)cc5)c4=O)nc3)c2cc1OC` [Example 1], the figures for the concentration for half-maximal inhibition (IC50) (in test [1]; in test [2]; on human MET kinase F1200I) were 5 nM, 2.6 nM and 2.5 nM, respectively.

On to `COc1cc2nccc(Oc3ccc(NC(=O)c4cn(C)cc(-c5ccc(F)cc5)c4=O)nc3)c2cc1OC` [Example 2], for which the 50% inhibitory concentration (IC50) amounted to 6 nM in test [1], 5.3 nM in test [2] and 6.8 nM against human MET kinase F1200I.

With `CCn1cc(C(=O)Nc2ccc(Oc3ccnc4cc(OC)c(OC)cc34)cn2)c(=O)c(-c2ccc(F)cc2)c1` [Example 3], the 50% inhibitory concentration (IC50) in test [1] stood at 5 nM; in test [2] it was 3 nM; on human MET kinase F1200I it was 5 nM.

In the case of `COc1cc2nccc(Oc3ccc(NC(=O)c4cn(C(C)C)cc(-c5ccc(F)cc5F)c4=O)nc3)c2cc1OC` [Example 4], the values for the concentration for half-maximal inhibition (IC50) (in test [1]; in test [2]; at human MET kinase F1200I) were 5 nM, 1.7 nM and 3 nM, respectively.

In the case of `COc1cc2nccc(Oc3ccc(NC(=O)c4cn(C(C)C)cc(-c5ccc(Cl)cc5)c4=O)nc3)c2cc1OC` [Example 5, 5-(4-chlorophenyl)-N-(5-((6,7-dimethoxyquinolin-4-yl)oxy)pyridin-2-yl)-1-isopropyl-4-oxo-1,4-dihydropyridine-3-carboxamide], the IC50 in test [1] was determined as 12 nM; in test [2], 6.4 nM; at human MET kinase F1200I it was 5.7 nM.

Consider `COc1cc2nccc(Oc3ccc(NC(=O)c4cn(C(C)C)cc(-c5ccc(F)c(F)c5)c4=O)nc3)c2cc1OC` [Example 6], for which the half-maximal inhibitory concentration (IC50) in test [1] was determined as 11 nM; in test [2], 7.8 nM; against human MET kinase F1200I, 8.1 nM.

Turning to `COCCn1cc(C(=O)Nc2ccc(Oc3ccnc4cc(OC)c(OC)cc34)cn2)c(=O)c(-c2ccc(F)cc2)c1` [Example 7, N-(5((6,7-dimethoxyquinolin-4-yl)oxy)pyridin-2-yl)-5-(4-fluorophenyl)-1-(2-methoxyethyl)-4-oxo-1,4-dihydropyridine-3-carboxamide], the IC50 in test [1] came to 7 nM; in test [2] it was 2.6 nM; against human MET kinase F1200I it was 3.7 nM.

Consider `COc1cc2nccc(Oc3ccc(NC(=O)c4cn(CC5CCOCC5)cc(-c5ccc(F)cc5)c4=O)nc3)c2cc1OC` [Example 8, N-(5-((6,7-dimethoxyquinolin-4-yl)oxy)pyridin-2-yl)-5-(4-fluorophenyl)-4-oxo-1-((tetrahydro-2H-pyran-4-yl)methyl)-1,4-dihydropyridine-3-carboxamide], for which the 50% inhibitory concentration (IC50) in test [1] was 15 nM; in test [2] it was 3.9 nM; against human MET kinase F1200I, 4.9 nM.

With `COc1cc2nccc(Oc3ccc(NC(=O)c4cn(CC(C)(C)O)cc(-c5ccc(F)cc5)c4=O)nc3)c2cc1OC` [Example 9, N-(5-((6,7-dimethoxyquinolin-4-yl)oxy)pyridin-2-yl)-5-(4-fluorophenyl)-1-(2-hydroxy-2-methylpropyl)-4-oxo-1,4-dihydropyridine-3-carboxamide], the concentration for half-maximal inhibition (IC50) in test [1] was 13 nM; in test [2], 5.6 nM; on human MET kinase F1200I, 6.4 nM.

As to `CCCn1cc(C(=O)Nc2ccc(Oc3ccnc4cc(OC)c(OC)cc34)cn2)c(=O)c(-c2ccc(F)cc2)c1` [Example 10, N-(5((6,7-dimethoxyquinolin-4-yl)oxy)pyridin-2-yl)-5-(4-fluorophenyl)-4-oxo-1-propyl-1,4-dihydropyridine-3-carboxamide], the concentration for half-maximal inhibition (IC50) came out at 15 nM in test [1], 3.5 nM in test [2] and 4.2 nM against human MET kinase F1200I.

`COc1cc2nccc(Oc3ccc(NC(=O)c4cn(CC(C)C)cc(-c5ccc(F)cc5)c4=O)nc3)c2cc1OC` [Example 11, N-(5-((6,7-dimethoxyquinolin-4-yl)oxy)pyridin-2-yl)-5-(4-fluorophenyl)-1-isobutyl-4-oxo-1,4-dihydropyridine-3-carboxamide]: the IC50 in test [1] was 33 nM; in test [2] it was 7.7 nM; against human MET kinase F1200I, 6.9 nM.

Consider `COc1cc2nccc(Oc3ccc(NC(=O)c4cn(C5CCOCC5)cc(-c5ccc(F)cc5)c4=O)nc3)c2cc1OC` [Example 12, N-(5((6,7-dimethoxyquinolin-4-yl)oxy)pyridin-2-yl)-5-(4-fluorophenyl)-4-oxo-1-(tetrahydro-2H-pyran-4-yl)-1,4-dihydropyridine-3-carboxamide], for which the IC50 amounted to 23 nM in test [1], 5.6 nM in test [2] and 7 nM on human MET kinase F1200I.

In the case of `COc1cc2nccc(Oc3ccc(NC(=O)c4cn(CC(=O)N(C)C)cc(-c5ccc(F)cc5F)c4=O)nc3)c2cc1OC` [Example 13, 5-(2,4-difluorophenyl)-N-(5((6,7-dimethoxyquinolin-4-yl)oxy)pyridin-2-yl)-1-(2-(dimethylamino)-2-oxoethyl)-4-oxo-1,4-dihydropyridine-3-carboxamide], the results for the IC50 (in test [1]; in test [2]; against human MET kinase F1200I) were 22 nM, 4.9 nM and 4.8 nM, respectively.

For the compound `COc1cc2nccc(Oc3ccc(NC(=O)c4cn(CC(=O)N5CCCC5)cc(-c5ccc(F)cc5F)c4=O)nc3)c2cc1OC` [Example 14], the results for the concentration for half-maximal inhibition (IC50) (in test [1]; in test [2]; against human MET kinase F1200I) were 129 nM, 15.9 nM and 12.4 nM, respectively.

Turning to `COc1cc2nccc(Oc3ccc(NC(=O)c4cn(CC(=O)N5CCOCC5)cc(-c5ccc(F)cc5F)c4=O)nc3)c2cc1OC` [Example 15, 5-(2,4-difluorophenyl)-N-(5-((6,7-dimethoxyquinolin-4-yl)oxy)pyridin-2-yl)-1-(2-morpholino-2-oxoethyl)-4-oxo-1,4-dihydropyridine-3-carboxamide], the IC50 in test [1] was found to be 292 nM; in test [2], 29.5 nM; at human MET kinase F1200I, 24.4 nM.

As for `CCC(CC)n1cc(C(=O)Nc2ccc(Oc3ccnc4cc(OC)c(OC)cc34)cn2)c(=O)c(-c2ccc(F)cc2F)c1` [Example 16, 5-(2,4-difluorophenyl)-N-(5-((6,7-dimethoxyquinolin-4yl)oxy)pyridin-2-yl)-4-oxo-1-(pentan-3-yl)-1,4-dihydropyridine-3-carboxamide], the IC50 came out at 11 nM in test [1], 4.6 nM in test [2] and 6.8 nM against human MET kinase F1200I.

As to `CCCC(CCC)n1cc(C(=O)Nc2ccc(Oc3ccnc4cc(OC)c(OC)cc34)cn2)c(=O)c(-c2ccc(F)cc2F)c1` [Example 17, 5-(2,4-difluorophenyl)-N-(5-((6,7-dimethoxyquinolin-4yl)oxy)pyridin-2-yl)-1-(heptan-4-yl)-4-oxo-1,4-dihydropyridine-3-carboxamide], the half-inhibitory concentration (IC50) stood at 76 nM in test [1], 17.1 nM in test [2] and 23.4 nM against human MET kinase F1200I.

Take `COc1cc2nccc(Oc3ccc(NC(=O)c4cn(C(C)C)c(C(C)C)c(-c5ccc(F)cc5)c4=O)nc3)c2cc1OC` [Example 38, N-(5-((6,7-dimethoxyquinolin-4yl)oxy)pyridin-2-yl)-5-(4-fluorophenyl)-1,6-diisopropyl-4-oxo-1,4-dihydropyridine-3-carboxamide]: the concentration for half-maximal inhibition (IC50) in test [1] stood at 18 nM.

For the compound `COc1cc2nc(C)cc(Oc3ccc(NC(=O)c4cn(C(C)C)cc(-c5ccc(F)cc5)c4=O)nc3)c2cc1OC` [Example 53, N-(5-((6,7-dimethoxy-2-methylquinolin-4-yl)oxy)pyridin-2-yl)-5-(4-fluorophenyl)-1-isopropyl-4-oxo-1,4-dihydropyridine-3-carboxamide], the concentration for half-maximal inhibition (IC50) in test [1] is more than 1000 nM; on human MET kinase F1200I it was 3690 nM.
